Values of other authors, collected in patent US20140024653A1, “COMPOSITIONS AND METHODS FOR TREATING CANCER USING PI3K INHIBITOR AND MEK INHIBITOR” (priority 2011, published 2014).

Experiments:
90 non-kinase targets = details: tested at 10 μM; cited from earlier work
[1] = mice; cited from earlier work

Structure (SMILES): O=C(NC[C@H](O)CO)c1ccncc1Nc1ccc(I)cc1F [Compound (1), N—((S)-2,3-dihydroxypropyl)-3-(2-fluoro-4-iodo-phenylamino)isonicotinamide]
- activity against 90 non-kinase targets (90 non-kinase targets): no activity
- two-week maximum tolerated dose [1]: 60 mg/kg BID
